Assay [1] deals with T1, Oxysterols receptor LXR-alpha (Homo sapiens, UniProt Q13133).
T1 sequence (Q13133 whole entry): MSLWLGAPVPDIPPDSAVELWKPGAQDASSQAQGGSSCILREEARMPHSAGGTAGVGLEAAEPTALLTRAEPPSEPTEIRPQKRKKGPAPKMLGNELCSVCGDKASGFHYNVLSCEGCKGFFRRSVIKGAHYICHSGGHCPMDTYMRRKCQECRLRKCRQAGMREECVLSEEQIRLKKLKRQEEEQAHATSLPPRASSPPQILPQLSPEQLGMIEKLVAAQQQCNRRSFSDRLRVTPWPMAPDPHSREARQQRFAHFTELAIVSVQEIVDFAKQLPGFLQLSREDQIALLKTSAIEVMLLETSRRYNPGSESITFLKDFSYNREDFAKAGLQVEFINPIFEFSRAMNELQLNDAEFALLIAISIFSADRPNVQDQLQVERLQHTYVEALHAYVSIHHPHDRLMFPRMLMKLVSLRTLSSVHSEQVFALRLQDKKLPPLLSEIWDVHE

Assay [2] concerns the target T2, Oxysterols receptor LXR-beta (Homo sapiens, UniProt P55055).
T2 sequence (P55055 whole entry): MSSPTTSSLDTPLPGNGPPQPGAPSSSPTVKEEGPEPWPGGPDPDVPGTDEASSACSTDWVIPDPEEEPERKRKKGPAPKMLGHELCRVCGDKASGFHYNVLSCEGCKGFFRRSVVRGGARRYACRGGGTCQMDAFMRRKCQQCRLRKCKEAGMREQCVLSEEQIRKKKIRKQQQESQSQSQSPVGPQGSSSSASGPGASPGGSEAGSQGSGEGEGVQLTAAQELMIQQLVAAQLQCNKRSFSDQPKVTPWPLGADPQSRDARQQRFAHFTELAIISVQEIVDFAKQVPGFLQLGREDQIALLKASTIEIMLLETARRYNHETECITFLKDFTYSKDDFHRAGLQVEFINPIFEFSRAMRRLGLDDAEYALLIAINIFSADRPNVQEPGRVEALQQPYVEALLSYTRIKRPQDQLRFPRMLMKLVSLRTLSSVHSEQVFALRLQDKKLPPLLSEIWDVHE

A word on the Ki: it is the equilibrium dissociation constant of an inhibitor or competing ligand from its target. A high value points to weaker binding. On to `CC(C)CC[C@H](O)[C@@H](C)[C@H]1CC[C@H]2[C@@H]3CC=C4C[C@@H](O)CC[C@]4(C)[C@H]3CC[C@]12C` [(1S,2R,5S,10S,11S,14R,15S)-14-[(2S,3S)-3-hydroxy-6-methylheptan-2-yl]-2,15-dimethyltetracyclo[8.7.0.0^{2,7}.0^{11,15}]heptadec-7-en-5-ol], for which the Ki in assay [1] stood at 250 nM; in assay [2] it was 490 nM.
Consider `CC(C)(O)C1OC2CCC3(C)C(O)(CCC4Cc5c([nH]c6ccccc56)C43C)C2=CC1=O` (stereo not drawn) [CAS_57186-25-1], for which the Ki in assay [2] worked out at 1100 nM.

These data come from BindingDB's records for doi:10.1124/jpet.103.052852 (Eli Lilly, 2003).
